Assay results published in PubChem BioAssay (NCI).
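The compound was tested at five concentrations on cells cultured in 96-well plates, with a 48-hour exposure period. GI50: concentration for 50% inhibition of growth. Definition used: TGI = concentration required for complete inhibition of growth.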 Calls of active or inactive are those of the source. Rule as the data show it: active = GI50 below about 0.43 µM; inactive = the rest.

Key:
Assay in all cases: NCI anticancer screen, dose series, 48 h
786-0 renal = test system: 786-0 renal
A498 renal = test system: A498 renal
ACHN renal = test system: ACHN renal
CAKI-1 renal = test system: CAKI-1 renal
CCRF-CEM leukemia = test system: CCRF-CEM leukemia
DU-145 prostate = test system: DU-145 prostate
EKVX NSCLC = test system: EKVX NSCLC
HCT-15 colon = test system: HCT-15 colon
HL-60(TB) leukemia = test system: HL-60(TB) leukemia
HOP-62 NSCLC = test system: HOP-62 NSCLC
HOP-92 NSCLC = test system: HOP-92 NSCLC
HS 578T breast = test system: HS 578T breast
HT29 colon = test system: HT29 colon
M14 melanoma = test system: M14 melanoma
MALME-3M melanoma = test system: MALME-3M melanoma
MCF7 breast = test system: MCF7 breast
MDA-MB-231 breast = test system: MDA-MB-231 breast
MDA-MB-435 = test system: MDA-MB-435
MOLT-4 leukemia = test system: MOLT-4 leukemia
NCI-H226 lung = test system: NCI-H226 lung
NCI-H23 lung = test system: NCI-H23 lung
NCI-H522 lung = test system: NCI-H522 lung
NCI/ADR-RES ovarian = test system: NCI/ADR-RES ovarian
OVCAR-4 ovarian = test system: OVCAR-4 ovarian
OVCAR-5 ovarian = test system: OVCAR-5 ovarian
PC-3 prostate = test system: PC-3 prostate
RXF 393 renal = test system: RXF 393 renal
SF-268 CNS = test system: SF-268 CNS
SF-295 CNS = test system: SF-295 CNS
SF-539 CNS = test system: SF-539 CNS
SK-MEL-28 melanoma = test system: SK-MEL-28 melanoma
SK-OV-3 ovarian = test system: SK-OV-3 ovarian
SN12C renal = test system: SN12C renal
SNB-19 CNS = test system: SNB-19 CNS
SNB-75 CNS = test system: SNB-75 CNS
SW-620 colon = test system: SW-620 colon
TK-10 renal = test system: TK-10 renal
U251 CNS = test system: U251 CNS
UACC-257 melanoma = test system: UACC-257 melanoma
UACC-62 melanoma = test system: UACC-62 melanoma
UO-31 renal = test system: UO-31 renal

O=P(O)(O)CN1CCNCCN(CP(=O)(O)O)CCN(CP(=O)(O)O)CCNCC1
outcome (786-0 renal): inactive
outcome (A498 renal): inactive
outcome (ACHN renal): inactive
TGI (CAKI-1 renal): 86.1 mM
outcome (CCRF-CEM leukemia): inactive
outcome (DU-145 prostate): inactive
outcome (EKVX NSCLC): inactive
outcome (HCT-15 colon): inactive
GI50 (HL-60(TB) leukemia): 48.9 mM
TGI (HL-60(TB) leukemia): 0.0558 mM
outcome (HOP-62 NSCLC): inactive
outcome (HOP-92 NSCLC): inactive
outcome (HS 578T breast): inactive
GI50 (HT29 colon): 49 mM
outcome (M14 melanoma): inactive
TGI (MALME-3M melanoma): 0.0441 mM
outcome (MALME-3M melanoma): inactive
GI50 (MCF7 breast): 99.9 mM
outcome (MDA-MB-231 breast): inactive
outcome (MDA-MB-435): inactive
outcome (MOLT-4 leukemia): inactive
outcome (NCI-H226 lung): inactive
outcome (NCI-H23 lung): inactive
outcome (NCI-H522 lung): inactive
outcome (NCI/ADR-RES ovarian): inactive
outcome (OVCAR-4 ovarian): inactive
outcome (OVCAR-5 ovarian): inactive
outcome (PC-3 prostate): inactive
outcome (RXF 393 renal): inactive
outcome (SF-268 CNS): inactive
outcome (SF-295 CNS): inactive
outcome (SF-539 CNS): inactive
outcome (SK-MEL-28 melanoma): inactive
outcome (SK-OV-3 ovarian): inactive
outcome (SN12C renal): inactive
outcome (SNB-19 CNS): inactive
outcome (SNB-75 CNS): inactive
outcome (SW-620 colon): inactive
outcome (TK-10 renal): inactive
outcome (U251 CNS): inactive
outcome (UACC-257 melanoma): inactive
outcome (UACC-62 melanoma): inactive
outcome (UO-31 renal): inactive
